Reference: ChEMBL document CHEMBL5729568, “Ras inhibitors” (2023)

Legend:
GTPase KRas [1] = biological target: T1, GTPase KRas (Homo sapiens, UniProt P01116); experiment: (§1) The purpose of this biochemical assay is to measure the ability of test compounds to covalently label nucleotide-loaded K-Ras isoforms. […] Analysis of raw data may be carried out using Waters MassLynx MS software, with % bound calculated from the deconvoluted protein peaks for labeled and unlabeled K-Ras.
[2] = (§2) Biochemical Assay: A variety of Ras proteins may be inhibited by compounds of the present invention (e.g., K-Ras, N-Ras, H-Ras, and mutants thereof at positions 12, 13 and 61, such as G12C, G12D, G12V, G12S, G13C, G13D, and Q61L, and others described herein). The purpose of this biochemical assay is to measure the ability of test compounds to covalently label nucleotide-loaded K-Ras isoforms. […] The sample is incubated at 25? C. for a time period of up to 24 hours prior to quenching by the addition of 10 uL of 5% Formic Acid. Quenched samples are centrifuged at 15000 rpm for 15 minutes in a benchtop centrifuge before injecting a 10 uL aliquot onto a reverse phase C4 column and eluting into the mass spectrometer with an increasing acetonitrile gradient in the mobile phase. Analysis of raw data may be carried out using Waters MassLynx MS software, with % bound calculated from the deconvoluted protein peaks for labeled and unlabeled K-Ras.
[3] = as §2; remark: listed apart in the source
GTPase NRas = GTPase NRas (Homo sapiens, UniProt P01111); experiment: as §2
[4] = as §2; remark: listed apart in the source
[5] = as §2; remark: listed apart in the source
[6] = as §2; remark: listed apart in the source
[7] = as §2; remark: listed apart in the source
GTPase KRas [8] = biological target: T1, GTPase KRas; experiment: as §1; remark: listed apart in the source
[9] = as §2; remark: listed apart in the source

GTPase NRas, sequence (P01111 whole entry, looked up): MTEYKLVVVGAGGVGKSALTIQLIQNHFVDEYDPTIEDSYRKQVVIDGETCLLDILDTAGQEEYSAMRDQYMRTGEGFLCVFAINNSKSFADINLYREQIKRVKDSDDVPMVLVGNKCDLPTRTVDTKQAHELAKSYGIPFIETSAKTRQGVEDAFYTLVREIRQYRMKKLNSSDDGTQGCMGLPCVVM

SMILES | IC50 (GTPase KRas [1]) | IC50 [2] | IC50 [3] | IC50 [4] | IC50 [6] | further results
C=CC(=O)N1CC[C@H](C(=O)N(C)[C@H](C(=O)N[C@H]2Cc3cc(O)cc(c3)-c3ccc4c(c3)c(c(-c3ccccc3CN(C)C)n4CC)CC(C)(C)COC(=O)[C@@H]3CCCN(N3)C2=O)C(C)C)C1 | in the range around 55 nM |  |  |  |  | 
C=CC(=O)N1CC[C@H](C(=O)N(C)[C@H](C(=O)N[C@H]2Cc3cc(O)cc(c3)-c3ccc4c(c3)c(c(-c3ncccc3COC)n4CC)CC(C)(C)COC(=O)[C@@H]3CCCN(N3)C2=O)C(C)C)C1 | in the range around 5500 nM | in the range around 5500 nM |  |  |  | 
C=CC(=O)N1CC[C@H](C(=O)N(C)[C@H](C(=O)N[C@H]2Cc3cc(O)cc(c3)-c3ccc4c(c3)c(c(-c3cnn(C)c3)n4CC)CC(C)(C)COC(=O)[C@@H]3CCCN(N3)C2=O)C(C)C)C1 | in the range around 550 nM |  | in the range around 5500 nM |  |  | 
CCn1c(-c2ccccc2COC)c2c3cc(ccc31)-c1cc(O)cc(c1)C[C@H](NC(=O)[C@H](C(C)C)N(C)C(=O)[C@H]1CCN(C(=O)/C=C/CN(C)C)C1)C(=O)N1CCC[C@H](N1)C(=O)OCC(C)(C)C2 | in the range around 55 nM |  |  |  |  | 
C=CC(=O)N1CC[C@H](C(=O)N(C)[C@H](C(=O)N[C@H]2Cc3cc(O)cc(c3)-c3ccc4c(c3)c(c(-c3nccnc3COC)n4CC)CC(C)(C)COC(=O)[C@@H]3CCCN(N3)C2=O)C(C)C)C1 | in the range around 5500 nM | in the range around 5500 nM |  |  |  | 
C=CC(=O)N1CC[C@H](C(=O)N(C)[C@H](C(=O)N[C@H]2Cc3cc(O)cc(c3)-c3ccc4c(c3)c(c(-c3ccc(C5CCN(C)CC5)nc3)n4CC)CC(C)(C)COC(=O)[C@@H]3CCCN(N3)C2=O)C(C)C)C1 | in the range around 550 nM |  | in the range around 5500 nM |  |  | 
C=CC(=O)N1CC[C@H](C(=O)N(C)[C@H](C(=O)N[C@H]2Cc3cc(O)cc(c3)-c3ccc4c(c3)c(c(-c3ccc(CN(C)C)cc3COC)n4CC)CC(C)(C)COC(=O)[C@@H]3CCCN(N3)C2=O)C(C)C)C1 | in the range around 55 nM |  |  |  |  | 
CCn1c(-c2cccnc2C(C)OC)c2c3cc(ccc31)-c1cccc(c1)C[C@H](NC(=O)[C@H](C(C)C)N(C)C(=O)N1CCC13CN(C(=O)C#CC(C)(C)N(C)C)C3)C(=O)N1CCC[C@H](N1)C(=O)OCC(C)(C)C2 (some centres not stated) | in the range around 5500 nM | in the range around 55 nM | in the range around 550 nM | in the range around 550 nM | in the range around 550 nM | IC50 (GTPase NRas): in the range around 550 nM; IC50 [5]: in the range around 550 nM; IC50 [7]: in the range around 55 nM; IC50 (GTPase KRas [8]): in the range around 550 nM; IC50 [9]: in the range around 550 nM
C=CC(=O)N1CC[C@H](C(=O)N(C)[C@H](C(=O)N[C@H]2Cc3cc(O)cc(c3)-c3ccc4c(c3)c(c(-c3cccnc3COC)n4CC#N)CC(C)(C)COC(=O)[C@@H]3CCCN(N3)C2=O)C(C)C)C1 | in the range around 55 nM |  |  |  |  | 
C=CC(=O)N1CC(C(=O)N(C)[C@H](C(=O)N[C@H]2Cc3cc(O)cc(c3)-c3ccc4c(c3)c(c(-c3cccnc3COC)n4CC)CC(C)(C)COC(=O)[C@@H]3CCCN(N3)C2=O)C(C)C)C1 | in the range around 55 nM |  | in the range around 5500 nM |  |  | 
C=CC(=O)N1CC[C@H](C(=O)N(C)[C@H](C(=O)N[C@H]2Cc3cc(OC(=O)N(C)CC(=O)O)cc(c3)-c3ccc4c(c3)c(c(-c3ccccc3CCOC)n4CC)CC(C)(C)COC(=O)[C@@H]3CCCN(N3)C2=O)C(C)C)C1 | in the range around 550 nM |  |  |  |  | 
C=CC(=O)N1CC[C@H](C(=O)N(C)[C@H](C(=O)N[C@H]2Cc3cc(O)cc(c3)-c3ccc4c(c3)c(c(-c3cncc(CCN(C)C)c3)n4CC)CC(C)(C)COC(=O)[C@@H]3CCCN(N3)C2=O)C(C)C)C1 | in the range around 550 nM |  | in the range around 5500 nM |  |  | 
C=CC(=O)N1CC[C@H](C(=O)N(C)[C@H](C(=O)N[C@H]2Cc3cc(O)cc(c3)-c3ccc4c(c3)c(c(-c3cnccc3COC)n4CC)CC(C)(C)COC(=O)[C@@H]3CCCN(N3)C2=O)C(C)C)C1 | in the range around 55 nM |  |  |  | in the range around 550 nM | 
C=CC(=O)N1CC[C@H](C(=O)N(C)[C@H](C(=O)N[C@H]2Cc3cc(O)cc(c3)-c3ccc4c(c3)c(c(C3=C(COC)COCC3)n4CC)CC(C)(C)COC(=O)[C@@H]3CCCN(N3)C2=O)C(C)C)C1 | in the range around 55 nM |  |  |  |  | 
C=CC(=O)N1CCN(C(=O)N(C)[C@H](C(=O)N[C@H]2Cc3cc(O)cc(c3)-c3ccc4c(c3)c(c(-c3ccccc3CN(C)C)n4CC)CC(C)(C)COC(=O)[C@@H]3CCCN(N3)C2=O)C(C)C)CC1 |  |  | in the range around 550 nM | in the range around 550 nM | in the range around 550 nM | IC50 (GTPase KRas [8]): in the range around 550 nM
C=CC(=O)N1CC[C@H](C(=O)N(C)[C@H](C(=O)N[C@H]2Cc3cc(O)cc(c3)-c3ccc4c(c3)c(c(-c3ccc5c(c3)CCN(C)C5)n4CC)CC(C)(C)COC(=O)[C@@H]3CCCN(N3)C2=O)C(C)C)C1 | in the range around 550 nM |  | in the range around 5500 nM |  |  | 
CCn1c(-c2cccnc2C(C)OC)c2c3cc(ccc31)N1CCO[C@@H](C[C@H](NC(=O)[C@H](C(C)C)N(C)C(=O)C3(F)CCN(C(=O)/C=C/CN(C)C)CC3)C(=O)N3CCC[C@H](N3)C(=O)OCC(C)(C)C2)C1 (some centres not stated) |  | in the range around 5500 nM | in the range around 5500 nM | in the range around 5500 nM | in the range around 550 nM | IC50 [5]: > 10000 nM; IC50 [7]: in the range around 55 nM; IC50 [9]: in the range around 5500 nM
CCn1c(-c2ccccc2CCOC)c2c3cc(ccc31)-c1cc(O)cc(c1)C[C@H](NC(=O)[C@H](C(C)C)N(C)C(=O)[C@H]1CCN(C(=O)C#CCN(C)C)C1)C(=O)N1CCC[C@H](N1)C(=O)OCC(C)(C)C2 | in the range around 55 nM |  | in the range around 5500 nM | in the range around 5500 nM | in the range around 550 nM | IC50 (GTPase KRas [8]): in the range around 5500 nM
C=CC(=O)N1CC[C@H](C(=O)N(C)[C@H](C(=O)N[C@H]2Cc3cc(O)cc(c3)-c3ccc4c(c3)c(c(-c3cccnc3CN(C)C)n4CC)CC(C)(C)COC(=O)[C@@H]3CCCN(N3)C2=O)C(C)C)C1 | in the range around 550 nM |  | in the range around 5500 nM |  |  | 
C=CC(=O)N1CC(OC[C@H](C(=O)N[C@H]2Cc3cccc(c3)-c3ccc4c(c3)c(c(-c3cccnc3C(C)OC)n4CC(F)(F)F)CC(C)(C)COC(=O)[C@@H]3CCCN(N3)C2=O)C(C)C)C1 (some centres not stated) |  | in the range around 550 nM | in the range around 5500 nM | in the range around 5500 nM | in the range around 550 nM | IC50 [5]: in the range around 5500 nM; IC50 [7]: in the range around 55 nM; IC50 [9]: in the range around 5500 nM
COC(C)c1ncccc1-c1c2c3cc(ccc3n1CC(F)(F)F)-c1cccc(c1)C[C@H](NC(=O)[C@@H](COC1CN(C(=O)C#CC(C)(C)N(C)C)C1)C(C)C)C(=O)N1CCC[C@H](N1)C(=O)OCC(C)(C)C2 (some centres not stated) |  | in the range around 5500 nM | in the range around 5500 nM | in the range around 5500 nM | in the range around 5500 nM | IC50 [5]: > 10000 nM; IC50 [7]: < 10 nM; IC50 [9]: > 10000 nM
CCn1c(-c2cccnc2C(C)OC)c2c3cc(ccc31)-c1cccc(c1)C[C@H](NC(=O)[C@@H](COC1CN(C(=O)C#C[C@H]3COCCN3C)C1)C(C)C)C(=O)N1CCC[C@H](N1)C(=O)OCC(C)(C)C2 (some centres not stated) |  | > 10000 nM | > 10000 nM | > 10000 nM | in the range around 5500 nM | IC50 [5]: > 10000 nM; IC50 [7]: in the range around 55 nM; IC50 [9]: > 10000 nM
CCn1c(-c2cccnc2COC)c2c3cc(ccc31)-c1cc(O)cc(c1)C[C@H](NC(=O)[C@H](C(C)C)N(C)C(=O)[C@H]1CCN(C(=O)C#CCN(C)C)C1)C(=O)N1CCC[C@H](N1)C(=O)OCC(C)(C)C2 |  |  |  |  |  | IC50 (GTPase KRas [8]): in the range around 550 nM
